Measured values taken from the COVID Moonshot data (paper PMC11187573), “Identification of SARS-CoV-2 Mpro inhibitors through deep reinforcement learning for de novo drug design and computational chemistry approaches” (RSC Medicinal Chemistry, 2024).

Tests used:
[1] = molecular target: SARS-CoV-2 Main Protease (SARS-CoV-2) (UniProt P0DTD1)
[2] = molecular target: SARS-CoV-2 Main Protease (SARS-CoV-2) (UniProt P0DTD1); remark: listed apart in the source

SMILES	relative solubility at 20 uM	relative solubility at 100 uM	inhibition ([1]; 20.0 µM)	inhibition ([1]; 50.0 µM)	inhibition ([2]; 20.0 µM)	inhibition ([2]; 50.0 µM)	IC50 [2]
Cc1cccc(C)c1OCC(=O)NCCc1ccccc1	1	0.98	1.78%	7.25%	0%	0%	–
Cc1ccncc1NC(=O)Nc1ccccc1	1	1	–	21.1%	0%	-0.18%	–
O=C(Cc1cncnc1)Nc1cc(F)cc(OC2CC(=O)N2)c1 (centres undefined)	0.99	0.99	52.8%	87.8%	–	45.7%	–
O=C(NCc1cccnc1)Nc1cccc(OCC(F)F)n1	1	1	3.33%	8.28%	0%	4.42%	–
Cc1ccccc1CN1CCN(C(=O)C(F)C(C)C)CC1 (centres undefined)	1	1	2.74%	6.7%	0%	10.3%	–
C=CC(=O)N(c1ccc(C(C)(C)C)cc1)C(C(=O)NCCc1cccc(F)c1)c1cncc(C)c1 (centres undefined)	0.8	0.28	49%	78.2%	–	0%	–
CN1C(=O)/C(=N\NC(=O)c2ccc3c(c2)OCO3)c2ccccc21	0.97	0.75	-16.9%	-60.6%	–	-12.8%	–
O=C(Cc1ccc2[nH]c(=O)[nH]c2c1)NC1(CNC(=O)c2cnc[nH]2)CC1	1	1	6.85%	3.02%	–	76.6%	27.3 µM
O=C(c1cc(=O)[nH]c2ccc(F)cc12)N1CCN(S(=O)(=O)c2ccc(Cl)cc2)CC1	0.98	0.81	-1.84%	11.4%	–	50%	–
C=CC(=O)N(c1ccc(C(C)(C)CC)cc1)C(C(=O)Nc1ccccc1Br)c1cccnc1 (centres undefined)	1	1	–	-11.5%	0%	8.03%	–
O=C(c1cc(=O)[nH]c2ccc(F)cc12)N1CCN(S(=O)(=O)c2cccc(Cl)c2)CC1	0.98	0.87	1.39%	25.7%	–	52.8%	–
C=CC(=O)N(c1ccc(SC)cc1)C(C(=O)Nc1ccc(OC)cc1)c1cccnc1 (centres undefined)	0.91	0.77	13.5%	27%	0%	–	–
NS(=O)(=O)c1ccc(N2CCC(Nc3ccccc3)CC2)cc1	1	1	–	9.57%	27.2%	22%	–
Cc1cc(C)cc(NC(=O)Cc2cnn(C)c2C)c1	1	1.01	-12.1%	-5.28%	–	0%	–
C#CCN1CCN(C(=O)C=C)CC1	1.01	1.01	-18.6%	-15%	3.23%	–	–
O=C(NC1CCCCC1NC(=O)C1CCCCC1)c1ccncc1 (centres undefined)	1	1	-14.4%	-20.6%	0%	–	–
O=C(CCl)N1CCN(C(c2ccccc2)c2ccccc2)CC1	-0.2	0.01	–	108%	100%	100%	0.386 µM
O=C(NC(Cc1ccccc1)C(=O)NCc1ccno1)OCc1ccccc1 (centres undefined)	0.98	0.85	–	50.6%	0%	0%	–
C=CC(=O)N(c1ccc(C(C)(C)C)cc1)C(C(=O)NC(C)(C)C)c1cnccc1C (centres undefined)	0.99	1	-14%	-12.5%	0%	0%	–
C=CC(=O)N(c1ccc(SC)cc1)C(C(=O)NC(C)(C)C)c1cccnc1 (centres undefined)	1	0.99	3.54%	7.75%	0%	–	–
O=C(NCc1cccnn1)Nc1cccc(OCCN2CCOCC2)c1	1	0.99	1.16%	1.22%	0%	0%	–
Cc1cccc(CC2CCN(C(=O)CCl)CC2)c1	1	1	62.9%	90.5%	–	87.1%	4.49 µM
CC(C(=O)Nc1cnccc1C)=C1CC1	1	1	2.11%	-8.02%	–	0%	–
Cc1cc(NC(=O)Cc2cncnc2)cc(OC2CC(=O)N2)c1 (centres undefined)	1.01	1	49.3%	72.7%	–	45%	–
O=C(NCc1cncs1)Nc1cccc(N2CCOCC2)c1	1	1.01	5.65%	13.6%	0.672%	23.8%	–

SMILES	relative solubility at 20 uM	relative solubility at 100 uM	inhibition ([1]; 20.0 µM)	inhibition ([1]; 50.0 µM)	inhibition ([2]; 20.0 µM)	inhibition ([2]; 50.0 µM)	IC50 [2]
O=C(CCl)N1CCN(Cc2cc(Cl)cc(Cl)c2)CC1	1	1	76.9%	69.1%	100%	100%	0.475 µM
N#CC(C(=O)Nc1ccccc1)C(=O)c1cccc(Cl)c1 (centres undefined)	0.98	0.98	24.1%	44%	0%	0%	–
CCC(C)CC(=O)N1CCCC(NC(=O)Cn2c(C)cc(C)nc2=O)CC1 (centres undefined)	0.98	1	-4.95%	-19.4%	–	-29.6%	–
Cc1ccncc1NC(=O)Cc1cccc(S(N)(=O)=O)c1	0.99	0.99	11.1%	6.23%	–	11.5%	–
C=CC(=O)N1CCN(Cc2cccc3ccccc23)CC1	1	0.99	-4.32%	3.35%	0%	–	–
Cc1cc2c(cc1C)[C@H](C(=O)Nc1cncnc1-n1cccn1)CO2 (stereo in doubt)	0.82	0.76	-1.2%	-9.4%	–	0%	–
O=C(Nc1ccnnc1)NC(Cc1ccccc1)C(=O)N1CCCC1 (centres undefined)	1	1	0.0835%	3.23%	0%	0%	–
C=CC(=O)N(c1ccc(C2(C)CC2)cc1)C(C(=O)Nc1ccc(OC)cc1)c1cccnc1 (centres undefined)	0.96	0.62	–	12.6%	0%	0%	–
C=CC(=O)N(c1ccc(C2(C)CC2)cc1)C(C(=O)Nc1ccc(Cl)cc1)c1cccnc1 (centres undefined)	0.95	0.56	–	-9.81%	0%	-0.67%	–
COc1cccc(N2CCN(C(=O)c3cc(=O)[nH]c4ccccc34)CC2)c1	0.99	0.95	78.5%	90.8%	–	83.3%	19.7 µM
O=C(Cc1c[nH]c2ncccc12)NCc1ccc(Cl)cn1	1	1	1.55%	4.16%	0%	–	–
O=C(NCCOc1ccccc1)c1cc(=O)[nH]c2ccccc12	1	1	12.7%	54.6%	–	3.05%	–
CC(=O)N1CCN(C(=O)Cc2ccccn2)CC1	1	1	-0.517%	3.52%	0%	0%	–
CN1CCC(C(=O)NC2CCCCC2NC(=O)c2ccccc2)CC1 (centres undefined)	0.98	0.99	–	-15.4%	0%	0%	–
CC(OCC1CCCCO1)C(=O)N(CCc1ccccc1)Cc1cccnc1 (centres undefined)	1	1	–	-20.6%	0%	0%	–
CC(C)N(C)CC1CCN(c2ccc(S(N)(=O)=O)cc2)CC1	1	0.99	–	-17.8%	0%	0%	–
O=C(Nc1cccnc1)c1cc(Cl)ccc1-c1ccccc1	1	0.97	47.4%	60.4%	2.13%	–	–
CC(=O)N1CCN(CC(=O)Nc2cccc(S(N)(=O)=O)c2)CC1	1	1	-3.12%	2.63%	0%	–	–
O=C(CCl)N1CCC(c2nc(-c3cccnc3)nc3ccccc23)CC1	0.92	0.8	56.8%	71.5%	–	100%	14.9 µM
CC1(C)CCCN1S(=O)(=O)c1ccc2c(c1)C(=O)C(=O)N2	0.94	0.89	-5.91%	-10.7%	–	0%	–
CNS(=O)(=O)c1ccc(C(C)NC(=O)NC(C)(C)C)cc1 (centres undefined)	1	1	-0.809%	-0.25%	0%	0%	–
O=C(Cc1ccccc1)Nc1cccc(OC2CC(=O)N2)c1 (centres undefined)	1	1	-2.28%	-0.808%	–	0%	–
Cc1coc(NC(=O)Nc2cccnc2)n1	1	1	2.91%	8.86%	2.76%	8.52%	–
C=CC(=O)N(c1ccc(C(C)(C)CC)cc1)C(C(=O)Nc1ccc(Cl)cc1)c1cccnc1 (centres undefined)	0.82	0.68	16.5%	22.7%	11.3%	–	–
C=CC(=O)N(C1COC2(CCC2)C1)C(C(=O)NC(C)(C)C)c1cccnc1 (centres undefined)	0.97	0.96	12.6%	13.4%	0%	–	–

SMILES	relative solubility at 20 uM	relative solubility at 100 uM	inhibition ([1]; 20.0 µM)	inhibition ([1]; 50.0 µM)	inhibition ([2]; 20.0 µM)	inhibition ([2]; 50.0 µM)	IC50 [2]
O=C(CCl)NC(CO)c1cccc(Cl)c1 (centres undefined)	1	0.99	–	51.6%	16%	45.3%	–
C=CC(=O)N(c1ccc(C(C)(C)C)cc1)C(C(=O)NC1CCC1)c1cccnc1 (centres undefined)	1	1	6.16%	12%	0%	51.9%	–
O=C(NCc1ccc(Cl)cc1CN1CCN(C(=O)CCl)CC1)[C@@H]1CCCOC1 (stereo in doubt)	1	1	56.7%	77.9%	–	100%	20.1 µM
O=C(Cn1c(=O)[nH]c2ccccc21)Nc1cccc(Cl)c1	1	0.64	-4.28%	-9.78%	–	0%	–
C#CCOc1ccc(N(C(=O)C=C)C(C(=O)NC(C)(C)C)c2cccnc2)cc1 (centres undefined)	1	1	-13.4%	-14.8%	0%	–	–
O=C(CCl)N1CCN(S(=O)(=O)c2cccs2)CC1	1	1	99.3%	99.6%	97.9%	97.8%	0.557 µM
CCC(C)(C)CCN(Cc1ccsc1)C(=O)Cn1nnc2ccccc21	0.99	0.73	–	48.3%	-4.79%	40.1%	–
C=C(CN(C)C)C(=O)N1Cc2ccccc2C(c2ccccc2)C1 (centres undefined)	1	0.97	0.735%	10.3%	0%	–	–
C=CC(=O)N(c1ccc(C(C)(C)C)cc1)C(C(=O)NC1CCCC1)c1cccnc1 (centres undefined)	1.01	1	-10.5%	-12.8%	0%	1.68%	–
C=CC(=O)N(c1ccc(C(C)(C)C)cc1)C(C(=O)Nc1ccc(OC)cc1)c1cccnc1 (centres undefined)	0.95	0.71	–	12%	0%	0%	–
C=CC(=O)N1CCC(N(Cc2ccccc2C#N)C2CCC(O)CC2)CC1 (centres undefined)	0.99	0.99	-64%	-8.67%	–	0%	–
O=C(Nc1cccnc1)c1cccc(Cl)c1	1	0.92	5.47%	6.67%	0%	–	–
COc1ccc2c(c1)C(C(=O)Nc1cncnc1C)CCC2 (centres undefined)	1	1	6.97%	-24.1%	–	2.78%	–
NS(=O)(=O)CCc1ccccc1CN1CCN(C(=O)CCl)CC1	1	1	101%	103%	–	100%	0.834 µM
O=C(Nc1ccccc1OC1CCN(Cc2ccccc2)CC1)C1CCN(C(=O)CCl)CC1	0.94	0.95	6.3%	16.5%	–	-1.57%	–
CC(=O)NCCc1cn(CC(=O)N2CCOCC2)c2ccccc12	0.97	0.96	–	6.56%	0%	0%	–
CCOC(=O)c1nc(S(C)(=O)=O)ncc1Cl	0.99	0.99	96.9%	98.5%	–	100%	1.04 µM
CC(C(=O)Nc1cccc(NC2CCCC2)c1)c1cnccn1 (centres undefined)	1	0.98	-2.77%	0.913%	0%	-2.15%	–
NS(=O)(=O)c1ccc(N2CCC(c3nc4ccccc4s3)CC2)cc1	0.76	0.52	-11.9%	-12%	0%	–	–
C=CC(=O)N(c1ccc(C(C)OC)cc1)C(C(=O)Nc1ccc(Cl)cc1)c1cccnc1 (centres undefined)	0.84	0.76	12.3%	26.1%	0%	–	–
CC(=O)NCCc1c[nH]c2c(NCc3ccc4nc[nH]c4c3)cc(F)cc12	0.64	0.86	-13.7%	12.1%	–	-4.42%	–
Cc1ccncc1NC(=O)Cc1cccc(I)c1	1	1	17.4%	39.7%	–	64.3%	69.1 µM
O=S1(=O)CCC(N2CCN(c3nc(-c4cccnc4)nc4ccccc34)CC2)C1 (centres undefined)	1	0.94	13%	14.1%	0%	0%	–
C=CC(=O)N(c1ccc(C(C)(C)C)cc1)C(C(=O)NC(C)C)c1cccnc1 (centres undefined)	1	1	-1.73%	0.416%	0%	0%	–
Cc1ccc(-c2cc(C(F)(F)F)nn2-c2ccc(S(N)(=O)=O)cc2)cc1	0.91	0.79	6.23%	11.9%	2.17%	–	–
